Series [1] in a line: Fluorescence titration with metal cations. Conditions: for half maximal effective concentration for fluorescence silencing, copper versus other metal cations: 10 μM probe, Exc/Em 416 nm/650 nm; for fluorescence upon treatment with Cu^2+: 40 μM Cu^2+ (CuSO4), probe 10 μM. Here is the method:
FIG. 6: Fluorescence titration of p-H8THPPA and m-H8TPPA with metal cations. • 10 μM p-H8TPPA or m-H8TPPA solutions were treated with increasing quantities of metal cations followed by detection of fluorescence emission (⋅Exc/Em.416 nm/650 nm). Data are means±S.E.M. of at least n=3 independent experiments. Sigmoidal dose—response curves were fitted by non-linear regression and the resulting EC50 values are indicated.
FIG. 7: Fluorescence titration of p-H8THPPA and m-H8TPPA upon addition of metal cations • 10 μM p-H8TPPA or […] were treated with increasing quantities of metal cations followed by detection of fluorescence emission (⋅Exe/Em.416 nm/650 nm). Data are means+S.E.M. of at least n=3 independent experiments. Sigmoidal dose—response curves were fitted by non-linear regression and the resulting EC50 values are indicated.
(§1) Absorption spectra were recorded with a Tecan Infinite M200 Reader (Tecan Austria GmbH, Grödig/Salzburg, Switzerland) from 350 to 500 nm. The same device was used in fluorescence mode to measure fluorescence excitation ([…]; ⋅⋅Em. 650 nm) and fluorescence emission (550-850 nm; ⋅⋅Exc. 415 nm) spectra. 3D scanning was performed on a Spark® multimode microplate reader (Tecan Austria GmbH, Grodig/Salzburg, Switzerland) from 350 to 450 nm (Exc.) and 555 to 850 nm (Em.) with a 5 nm step size, excitation and emission bandwidths of 5 nm, and a detector gain of 100. A typical reaction mix was made by combining equal volumes of 20 μM phosphonate porphyrins diluted in assay-buffer (50 mM HEPES in bidistilled water adjusted to […] with sodium hydroxide solution; depleted of multivalent cations with Chelex® 100 Resin pretreatment^51) and a double-concentrated metal cation solution. Following 30 min incubations at 37° C. absorption or fluorescence measurements were done. For redox conversion tests the CuSO4 solutions were pretreated with 500 μM of L-ascorbic acid before admixing into the phosphonate porphyrin dilutions. To evaluate the effect of metal chelators, the metal cation-treated incubation mixtures were posttreated with 50 equivalents of EDTA or EGTA for 15 min before fluorescence emission readout.

Another series concerns Caco-2 cells. The experiment in a line: Fluorescence labeling of Caco-2 enterocytes (emission spectra, confocal imaging). The series is classed as cell-based, human. Particulars: Caco-2 cells, fluorescence spectra and confocal imaging. Here is the method:
FIG. 2: Caco-2 fluorescence labeling with Phenylphosphonate-substituted porphyrines. • Caco-2 cells were incubated with increasing concentrations of p-H8TPPA or m-H8TPPA followed by fluorescence measurement (⋅Exc/Em.416 nm/650 nm). Data are means±S.E.M. of n=3 independent experiments.
FIG. 5: Fluorescence labeling of Caco-2 enterocytes by phenylphosphonate-substituted porphyrines. • Fluorescence emission spectra of Caco-2 cells exposed to p-H8TPPA, m-H8TPPA (A) or the isopropyl-modified phosphonate p-H8TPPA-iPr8 (C) in comparison with each of the phenylphosphonate porphyrins as 10 μM dilution in assay buffer (⋅Exc416 nm). (B) Confocal images of Caco-2 upon loading with p-H8TPPA or m-H8TPPA. (D) Confocal images of p-H8TPPA-iPr8 in the presence or absence of Caco-2 cells. Scale bar=10 μm. Data are representative for three independent experiments.
The human intestinal cell line Caco-2 (European Collection of Cell Cultures, Porton Down, UK) were routinely cultured at 37° C., 5% CO2 and humidified atmosphere in Dulbecco's Modified Eagles Medium (DMEM), containing 10% fetal calf serum (FCS) 100 U/mL penicillin and 100 μg/ml streptomycin. For cellular phosphonate porphyrins experiments, Caco-2 cells were transferred into 96 wells (initially seeding 5000 cells per well) and cultured for 14 days for differentiation into an enterocyte-like monolayer^53,54. For phosphonate labeling, differentiated cells were treated with either m-H8TPPA, p-H8TPPA or p-H8TPPA-iPr8 in a HEPES-based incubation buffer (10 mM HEPES, pH 7.35, 120 mM NaCl, 5.4 mM KCl, 5 mM glucose, 1.3 mM CaCl2, 1 mM MgCl2, 1 mM NaH2PO4, 0.3% bovine serum albumin) for […] Excess fluorescent dye was removed by multiple washing steps before fluorescence emission scanning using 416 nm excitation (Tecan Infinite M200 reader; Tecan, Grödig/Salzburg, […]). To analyze metal responsiveness of the intracellular phosphonate porphyrins, cells were post-treated with 50 μM of different metal solutions at 37° C. in an albumin-free incubation buffer in a time-course experiment.
Fluorescence images of phosphonate porphyrin-labeled Caco-2 enterocytes were acquired on a Leica TCS SP8 laser scanning confocal microscope equipped with LAS X 3.5.5.19976 software platform, using a HC PL APO CS2 63×/1.20 water objective. The filters settings were[…]Exc488 nm/[…]Em580 nm; pinhole 111.5 μm, pinhole size 1 AU.

Series [2] can be described thus: Metal-dependent changes of absorbance and fluorescence properties, cell-free. Particulars: for fluorescence change by iron treatment in vitro: cell-free, FIG. 1. Here is the method:
FIG. 1: Metal-dependent changes of p-H8TPPA absorbance and fluorescence properties. • 10 μM p-H8TPPA dilutions were treated with various metal solutions (final concentration 40 μM) before recording (A) absorbance, (B) fluorescence excitation (⋅Em.650 nm) and (C) fluorescence emission (⋅⋅Exc.415 nm) spectra. Data are representative for three independent experiments.
FIG. 3: Metal-dependent changes of m-H8TPPA absorbance and fluorescence properties. • 10 μM m-H8TPPA dilutions were treated with various metal solutions (final concentration 40 μM) before recording (A) absorbance, (B) fluorescence excitation (⋅Em.650 nm) and (C) fluorescence emission (⋅⋅Exc.415 nm) spectra. Data are representative for three independent experiments.
Aiming to use arylphosphonate-tethered porphyrins as real-time cellular metal fluorescence sensors, we first characterized their metal-responsiveness under cell-free conditions. p-H8TPPA (see FIG. 1) and m-H8TPPA (see FIG. 3), were pretreated with various bivalent metal ions at a pH close to the cellular milieu (pH 7.4) before recording absorption and fluorescence spectra. […] Following Co^2+ treatment absorption spectra were less intense, plateau-shaped with a bathochromic broadening up to 434 nm. Hg^2+-treatment red-shifted the Soret band by approximately 30 nm. […] Despite of their restricted fluorescence intensity, the fluorescence emission patterns of all the aforementioned metal-treated arylphosphonate-tethered porphyrins seemed to be […] almost indistinguishable from the buffer-controls (see FIG. 1C, FIGS. 2 and 4). Zn^2+ treatment led to a declined and much more broadened Soret band in the range of 380-430 nm (see FIG. 1A). […] Thus, we assume a fluorescence quenching effect of Zn^2+ that requires further investigation.
as §1

The structures appear in SMILES notation.

In the case of `O=P(O)(O)c1ccc(-c2c3nc(c(-c4ccc(P(=O)(O)O)cc4)c4ccc([nH]4)c(-c4ccc(P(=O)(O)O)cc4)c4nc(c(-c5ccc(P(=O)(O)O)cc5)c5ccc2[nH]5)C=C4)C=C3)cc1` [p-H8TPPA, 5,10,15,20-Tetrakis [p-phenylphosphonic acid] porphyrin], in series [1], the “half maximal effective concentration for fluorescence silencing, copper versus other metal cations” value is on record as “considerably lower for copper” and the “fluorescence upon treatment with Cu^2+” value is listed as “almost complete abrogation”. Besides, in the series with Caco-2 cells, the “passage of the cellular membrane / cellular uptake” value is “pass the cellular membrane”. Further, in series [2], the “fluorescence change on binding of free divalent Cu, Zn, Pb, Hg, Cd, Co and Mn ions” value is recorded as “fluorescent decrease”; the “fluorescence change on binding of free divalent Fe, Mg and Ca ions” value is on record as “fluorescent increase”; the “fluorescence change by iron treatment in vitro” value is listed as “slightly enhanced”.

`O=P(O)(O)c1cccc(-c2c3nc(c(-c4cccc(P(=O)(O)O)c4)c4ccc([nH]4)c(-c4cccc(P(=O)(O)O)c4)c4nc(c(-c5cccc(P(=O)(O)O)c5)c5ccc2[nH]5)C=C4)C=C3)c1` [m-H8TPPA, 5,10,15,20-tetrakis [m-phenylphosphonic acid] porphyrin]: in series [1], the “half maximal effective concentration for fluorescence silencing, copper versus other metal cations” value is reported as “considerably lower for copper” and the “fluorescence upon treatment with Cu^2+” value is “almost complete abrogation”. Moreover, the “passage of the cellular membrane / cellular uptake” value in the series with Caco-2 cells is on record as “pass the cellular membrane”. Besides, in series [2], the “fluorescence change on binding of free divalent Cu, Zn, Pb, Hg, Cd, Co and Mn ions” value is “fluorescent decrease”; the “fluorescence change on binding of free divalent Fe, Mg and Ca ions” value is “fluorescent increase”; the “fluorescence change by iron treatment in vitro” value is “slightly enhanced”.

These data come from patent publication US20240142458A1, “FLUORESCENT PROBES FOR QUANTIFICATION OF FREE COPPER” (TECHNISCHE UNIVERSITÄT BERLIN, priority 2020, published 2024).
